Test results reported in publication PMC7881012, “Human ACE2 peptide-mimics block SARS-CoV-2 pulmonary cells infection” (Communications Biology, 2021).
Where two headings read alike, the source gives them in different places. Square brackets hold non-standard residues; d marks the D form. Peptide text beside a SMILES is read from it. hTyr = N[C@@H](CCc1ccc(O)cc1)C(=O)O

Experiments:
[1] = test system: SARS-CoV-2 clinical isolate SARS-CoV-2/PSL2020 in Vero-E6 cells; conditions: for % Inhibition of SARSCoV-2 replication at 10 μM: mean of at least three independent experiments; for % Inhibition, Moyenne / % Inhibition, Q2 (Median): clinical isolate /PSL2020 in Vero-E6 cells, 48 h, 10 µM
[2] = Helical content by circular dichroism; assay type: physicochemical; conditions: 60 µM peptide, 50 mM sodium phosphate buffer pH 7.4, 25 °C, DichroWeb CDSSTR deconvolution
From the text: The conformation of synthesized peptides in aqueous solution was investigated by circular dichroism (CD) spectroscopy. […] The deconvolution of the CD spectra using DichroWeb[25] allowed us to estimate the helical population for each peptide, which is reported in Table 1. Overall, an excellent agreement was observed between the Agadir-computed values and the experimental helical population inferred from CD data. […] The introduction of a proline residue in peptide P5 has a strong destabilizing effect on helical conformation (17%) whereas Leu/hTyr substitution only led to a slight decrease of the helical content (P7 versus P6 and P10 versus P8).
Fig. 2 Far-UV CD spectra of synthesized peptides. […] CD measurements are reported as molar ellipticity per residue.
CD spectra were recorded on a Jasco J-815 CD spectropolarimeter equipped with a Peltier temperature controller. Data were obtained at 25 °C over a wavelength range between 185 nm and 270 nm, using a wavelength interval of 0.2 nm and a scan rate of 20 nm min^−1. Peptide samples were prepared at a concentration of 60 µM in 50 mM sodium phosphate buffer, pH 7.4, in a quartz cell of 1 mm path length. CD experiments were processed and plotted with R program. CD spectra were analyzed using DICHROWEB web server and CDSSTR deconvolution algorithm.

[3] = HPLC retention time (LC-MS method B); assay type: physicochemical; conditions: method B: X-Select CSH C18 XP, 0.1% formic acid water/acetonitrile, 5-100% B in 3.2 min, 1.8 mL min^−1, 40 °C; used as indicator of hydrophobicity
Vero-E6 cells [4] = conditions: for toxicity in Vero-E6: MTT 0.1-10 µM and annexin-V/PI 10 µM, 24, 48 or 72 h (Fig. 3c)
[5] = test system: SARS-CoV-2 clinical isolate SARS-CoV-2/PSL2020 in Calu-3 cells; assay type: cell-based; conditions: for efficacy in reducing SARS-CoV-2 viral titers: pulmonary cells, 1 µM
[6] = biological target: SARS-CoV-2 spike RBD (Fc-tagged 2019-nCoV RBD-SD1) (Severe acute respiratory syndrome coronavirus 2, UniProt P0DTC2); assay: biochemical; assay type: binding; conditions: for kon: read-out: ka, association constant; for koff: read-out: kdis, dissociation constant; for Kd: Table 1 of the earlier manuscript version, quoted by Reviewer #2, superseded
Calu-3 cells [7] = test system: Calu-3 cells
Vero-E6 cells [8] = conditions: 10 µM
[9] = test system: SARS-CoV-2 clinical isolate SARS-CoV-2/PSL2020 in Calu-3 cells; conditions: clinical isolate /PSL2020 in Calu-3 cells, 48 h
Calu-3 cells [10] = conditions: 10 μM (150 times the IC50); MTT and annexin-V/PI, 24, 48 or 72 h (Fig. 3f)
[11] = BLI EXP1, sample conc. ACE2 10 nM, P8 100 nM, P9 and P10 1000 nM
[12] = BLI EXP2, sample conc. ACE2 100 nM, P8 1000 nM, P9 and P10 1111 nM
[13] = BLI EXP3, sample conc. ACE2 100 nM, P9 10000 nM, P10 1000 nM
[14] = EXP1, peptide 10 µM, 24 h (0 µM: 16%)
[15] = EXP1, peptide 10 µM, 48 h (0 µM: 18%)
[16] = EXP1, peptide 10 µM, 72 h (0 µM: 23%)
[17] = EXP2, peptide 10 µM, 24 h (0 µM: 13%)
[18] = EXP2, peptide 10 µM, 48 h (0 µM: 17%)
[19] = EXP2, peptide 10 µM, 72 h (0 µM: 20%)
[20] = EXP3, peptide 10 µM, 24 h (Vehicle: 15%)
[21] = EXP3, peptide 10 µM, 48 h (Vehicle: 18%)
[22] = EXP3, peptide 10 µM, 72 h (Vehicle: 22%)

## Ac-SALEEQLKTFLDKFLHELEDLLYQLAL-NH2 [P4]
[1]
  % Inhibition of SARSCoV-2 replication at 10 μM: 24%
  % Inhibition, Moyenne: 24.0%
  % Inhibition, Q2 (Median): 16.9%
[2]
  Experimental helical content%: 70%
[3]
  RT, HPLC retention time: 2,69 min

## CSCC[C@H](NC(=O)[C@H](Cc1ccccc1)NC(=O)[C@H](CCCCN)NC(=O)[C@H](CC(=O)O)NC(=O)[C@H](CC(C)C)NC(=O)[C@H](Cc1ccccc1)NC(=O)[C@@H](NC(=O)[C@H](CCCCN)NC(=O)[C@H](CCc1ccc(O)cc1)NC(=O)[C@H](CCC(N)=O)NC(=O)[C@H](CCC(=O)O)NC(=O)[C@H](CCC(=O)O)NC(=O)[C@H](CC(C)C)NC(=O)[C@H](C)NC(=O)[C@@H](N)CO)[C@@H](C)O)C(=O)N[C@@H](Cc1c[nH]cn1)C(=O)N[C@@H](CCC(=O)O)C(=O)N[C@@H](CC(C)C)C(=O)N[C@@H](CCC(=O)O)C(=O)N[C@@H](CC(=O)O)C(=O)N[C@@H](CC(C)C)C(=O)N[C@@H](CC(C)C)C(=O)N[C@@H](Cc1ccc(O)cc1)C(=O)N[C@@H](CCC(N)=O)C(=O)N[C@@H](CC(C)C)C(=O)N[C@@H](CO)C(=O)N[C@@H](CC(C)C)C(N)=O [P9] (H-SALEEQ[hTyr]KTFLDKFMHELEDLLYQLSL-NH2)
Vero-E6 cells [4]; 48 h, 10 µM
  Cell viability (MTT): 95%
Vero-E6 cells [4]
  toxicity in Vero-E6: devoid of toxicity
[5]
  SARSCoV-2 virus titer at 1 μM (PFU mL^−1) on Calu-3: 0 PFU mL^−1
  efficacy in reducing SARS-CoV-2 viral titers: 100%
[6]; [11]
  kon: 1020 M⁻¹ s⁻¹
  koff: < 1e-07 s⁻¹
[6]; [12]
  kon: 1100 M⁻¹ s⁻¹
  koff: < 1e-07 s⁻¹
[6]; [13]
  kon: 254 M⁻¹ s⁻¹
  koff: < 1e-07 s⁻¹
[6]
  Kd: < 1 nM
Calu-3 cells [7]; [14]
  Cell death (AnnV+PI): 21%
Calu-3 cells [7]; [15]
  Cell death (AnnV+PI): 19%
Calu-3 cells [7]; [16]
  Cell death (AnnV+PI): 19%
Calu-3 cells [7]; [17]
  Cell death (AnnV+PI): 16%
Calu-3 cells [7]; [18]
  Cell death (AnnV+PI): 19%
Calu-3 cells [7]; [19]
  Cell death (AnnV+PI): 23%
Calu-3 cells [7]; [20]
  Cell death (AnnV+PI): 20%
Calu-3 cells [7]; [21]
  Cell death (AnnV+PI): 20%
Calu-3 cells [7]; [22]
  Cell death (AnnV+PI): 22%
Vero-E6 cells [8]; 24 h, EXP1, flow cytometry
  Cell death (AnnV+PI): 3.3%
Vero-E6 cells [8]; 24 h, EXP2, flow cytometry
  Cell death (AnnV+PI): 4.72%
Vero-E6 cells [8]; 24 h, EXP3, flow cytometry
  Cell death (AnnV+PI): 3.62%
Vero-E6 cells [8]; 48 h, EXP1, flow cytometry
  Cell death (AnnV+PI): 9%
Vero-E6 cells [8]; 48 h, EXP2, flow cytometry
  Cell death (AnnV+PI): 7%
Vero-E6 cells [8]; 48 h, EXP3, flow cytometry
  Cell death (AnnV+PI): 8%
Vero-E6 cells [8]; 72 h, EXP1, flow cytometry
  Cell death (AnnV+PI): 4.4%
Vero-E6 cells [8]; 72 h, EXP2, flow cytometry
  Cell death (AnnV+PI): 2.34%
Vero-E6 cells [8]; 72 h, EXP3, flow cytometry
  Cell death (AnnV+PI): 2.25%
[1]
  % Inhibition, Moyenne: 94.5%
  % Inhibition, Q2 (Median): 94.5%
[9]
  IC50: 53 nM
[2]
  Experimental helical content%: 53%
[3]
  RT, HPLC retention time: 2,31 min
Calu-3 cells [10]
  cytotoxicity in uninfected Calu-3 cells: no cytotoxicity

## H-AHLFSYLTTKEEQDNDAIFLQEFSKES-NH2 [P1scr, reference compound]
[1]
  % Inhibition of SARSCoV-2 replication at 10 μM: 7%
  % Inhibition, Moyenne: 6.7%
  % Inhibition, Q2 (Median): 6.4%
[2]
  Experimental helical content%: 8%
[3]
  RT, HPLC retention time: 1,54 min

## H-SALEEQLKTFLDKFLHELEDLLYQLALAL-NH2 [P6]
[1]
  % Inhibition, Moyenne: 6.5%
  % Inhibition, Q2 (Median): 4.9%
[2]
  Experimental helical content%: 80%
[3]
  RT, HPLC retention time: 2,74 min

## H-SALEEQLKTFLDKFLHELEDLLYQLSL-NH2 [P2]
[1]
  % Inhibition of SARSCoV-2 replication at 10 μM: 16%
  % Inhibition, Moyenne: 16.0%
  % Inhibition, Q2 (Median): 20.0%
[2]
  Experimental helical content%: 70%
[3]
  RT, HPLC retention time: 1.47 min

## H-SALEEQLKTFLDKFLHELEDPLYQLAL-NH2 [P5]
[1]
  % Inhibition of SARSCoV-2 replication at 10 μM: 27%
  % Inhibition, Moyenne: 26.6%
  % Inhibition, Q2 (Median): 20.4%
[2]
  Experimental helical content%: 17%
[3]
  RT, HPLC retention time: 2,16 min

## H-SALEEQLKTFLDKFLHELEDLLYQLAL-NH2 [P3]
[1]
  % Inhibition of SARSCoV-2 replication at 10 μM: 4%
  % Inhibition, Moyenne: 3.9%
  % Inhibition, Q2 (Median): 3.3%
[2]
  Experimental helical content%: 64%
[3]
  RT, HPLC retention time: 2,53 min

## CSCC[C@H](NC(=O)[C@H](Cc1ccccc1)NC(=O)[C@H](CCCCN)NC(=O)[C@H](CC(=O)O)NC(=O)[C@H](CC(C)C)NC(=O)[C@H](Cc1ccccc1)NC(=O)[C@@H](NC(=O)[C@H](CCCCN)NC(=O)[C@H](CCc1ccc(O)cc1)NC(=O)[C@H](CCC(N)=O)NC(=O)[C@H](CCC(=O)O)NC(=O)[C@H](CCC(=O)O)NC(=O)[C@H](CC(C)C)NC(=O)[C@H](C)NC(=O)[C@@H](N)CO)[C@@H](C)O)C(=O)N[C@@H](Cc1c[nH]cn1)C(=O)N[C@@H](CCC(=O)O)C(=O)N[C@@H](CC(C)C)C(=O)N[C@@H](CCC(=O)O)C(=O)N[C@@H](CC(=O)O)C(=O)N[C@@H](CC(C)C)C(=O)N[C@@H](CC(C)C)C(=O)N[C@@H](Cc1ccc(O)cc1)C(=O)N[C@@H](CCC(N)=O)C(=O)N[C@@H](CC(C)C)C(=O)N[C@@H](C)C(=O)N[C@@H](CC(C)C)C(N)=O [P10] (H-SALEEQ[hTyr]KTFLDKFMHELEDLLYQLAL-NH2)
Vero-E6 cells [4]; 72 h, 1 µM
  Cell viability (MTT): 96%
Vero-E6 cells [4]
  toxicity in Vero-E6: devoid of toxicity
[5]
  SARSCoV-2 virus titer at 1 μM (PFU mL^−1) on Calu-3: 0 PFU mL^−1
  efficacy in reducing SARS-CoV-2 viral titers: 100%
[6]; [11]
  kon: 2490 M⁻¹ s⁻¹
  koff: < 1e-07 s⁻¹
[6]; [12]
  kon: 1410 M⁻¹ s⁻¹
  koff: < 1e-07 s⁻¹
[6]; [13]
  kon: 1430 M⁻¹ s⁻¹
  koff: < 1e-07 s⁻¹
[6]
  Kd: < 1 nM
Calu-3 cells [7]; [14]
  Cell death (AnnV+PI): 23%
Calu-3 cells [7]; [15]
  Cell death (AnnV+PI): 19%
Calu-3 cells [7]; [16]
  Cell death (AnnV+PI): 23%
Calu-3 cells [7]; [17]
  Cell death (AnnV+PI): 17%
Calu-3 cells [7]; [18]
  Cell death (AnnV+PI): 20%
Calu-3 cells [7]; [19]
  Cell death (AnnV+PI): 22%
Calu-3 cells [7]; [20]
  Cell death (AnnV+PI): 19%
Calu-3 cells [7]; [21]
  Cell death (AnnV+PI): 19%
Calu-3 cells [7]; [22]
  Cell death (AnnV+PI): 19%
Vero-E6 cells [8]; 24 h, EXP1, flow cytometry
  Cell death (AnnV+PI): 4%
Vero-E6 cells [8]; 24 h, EXP2, flow cytometry
  Cell death (AnnV+PI): 5.38%
Vero-E6 cells [8]; 24 h, EXP3, flow cytometry
  Cell death (AnnV+PI): 5.49%
Vero-E6 cells [8]; 48 h, EXP1, flow cytometry
  Cell death (AnnV+PI): 7%
Vero-E6 cells [8]; 48 h, EXP2, flow cytometry
  Cell death (AnnV+PI): 5.69%
Vero-E6 cells [8]; 48 h, EXP3, flow cytometry
  Cell death (AnnV+PI): 6.33%
Vero-E6 cells [8]; 72 h, EXP1, flow cytometry
  Cell death (AnnV+PI): 4%
Vero-E6 cells [8]; 72 h, EXP2, flow cytometry
  Cell death (AnnV+PI): 2.55%
Vero-E6 cells [8]; 72 h, EXP3, flow cytometry
  Cell death (AnnV+PI): 3%
[1]
  % Inhibition of SARSCoV-2 replication at 10 μM: 95%
  % Inhibition, Moyenne: 95.1%
  % Inhibition, Q2 (Median): 95.1%
[9]
  IC50: 42 nM
[2]
  Experimental helical content%: 56%
[3]
  RT, HPLC retention time: 2,34 min
Calu-3 cells [10]
  cytotoxicity in uninfected Calu-3 cells: no cytotoxicity
